# Patent US11186564B2, “Dual NAV1.2/5HT2a inhibitors for treating CNS disorders” (Sunovion Pharmaceuticals Inc., priority 2016, dated 2021)
# Biological target: T1, recombinant human serotonin receptor 5-HT2A (Homo sapiens, UniProt P28223)
# T1 construct: expressed in transfected cells; method B: loaded with Ca2+ dye
# Experiment: 5-HT2A antagonist Ca2+ assay in CHO-K1 cells (method A aequorin luminescence / method B FLIPR fluorescence)
# Assay type: cell-based
# Conditions: antagonist mode vs EC80 of reference agonist, method A or B, read-out: 5HT2A IC50
# Source text: The methods utilized to assess the inhibitory activity of compounds on recombinant human serotonin receptor 5-HT2A was based upon previously published approaches [Jerman J C, Brough S J, Gager T, Wood M, Coldwell M C, Smart D, Middlemiss D N. Pharmacological characterisation of human 5-HT2 receptor subtypes. European Journal of Pharmacology 2001 Feb. 23; 414(1):23-30; Le Poul E, Hisada S, Mizuguchi Y, Dupriez V J, Burgeon E, Detheux M. Adaptation of aequorin functional assay to high throughput screening. J Biomolecular Screening 2002 February; 7(1):57-65.] The 5-HT2A receptor signals through Gq-phospholipase signaling cascade, which leads to a transient increase in free intracellular […] concentration. Both 5-HT2A assay methods rely upon monitoring these changes in Ca^2+ concentration.
# In method A [Le Poul E, Hisada S, Mizuguchi Y, Dupriez V J, Burgeon E, Detheux M. (2002)], CHO-K1 cells engineered to stably co-express both recombinant human 5-HT2A and mitochondrial apoaequorin are used. […] For agonist testing, 50 microliters of cell suspension is mixed with 50 microliters of a solution containing test compound or reference agonist in a 96-well standard geometry microtiter plate. The resulting emission of light was recorded using a Hamamatsu Functional Drug Screening System 6000 (FDSS 6000) luminometer. For antagonist testing, 100 microliters of the solution of reference agonist (to yield an agonist concentration, EC80, sufficient to cause the cells to generate an 80% maximal luminescence response in the absence of any antagonist) is injected into the mix of cells and test compound, 15 minutes after the first injection. The resulting emission of light is recorded using Hamamatsu FDSS 6000 luminometer. IC50 values are calculated (from compound concentration dependent inhibition of agonist-induced 5-HT2A-dependent light emission) by non-linear least squares regression of the data (percent inhibition) onto equation (1) above.
# In method B [Jerman J C, Brough S J, Gager T, Wood M, Coldwell M C, Smart D, Middlemiss D N. (2001)], CHO-K1 cells which had been engineered to stably co-express recombinant human 5-HT2A are used in assay done similarly to method A. In method B, the cells are loaded with a fluorogenic Ca^2+ indicator dye by pre-incubation. Addition of the reference agonist serotonin causes a transient increase in fluorescence in a suspension of the loaded cells, which can be detected using the Molecular Devices fluorometric imaging plate reader (FLIPR), a high-throughput platform for 96-well cell-based assays. Addition of test compounds that are 5-HT2A antagonists, prior to the addition of the agonist (to yield an agonist concentration, EC80, sufficient to cause the cells to generate an 80% maximal fluorescence response in the absence of any antagonist), reduces the amount of fluorescence detected by the FLIPR upon agonist addition. IC50 values are calculated (from compound concentration dependent inhibition of agonist-induced 5-HT2A-dependent fluorescence) by non-linear least squares regression of the data (percent inhibition) onto equation (1) above.
# T1 sequence (P28223 whole entry): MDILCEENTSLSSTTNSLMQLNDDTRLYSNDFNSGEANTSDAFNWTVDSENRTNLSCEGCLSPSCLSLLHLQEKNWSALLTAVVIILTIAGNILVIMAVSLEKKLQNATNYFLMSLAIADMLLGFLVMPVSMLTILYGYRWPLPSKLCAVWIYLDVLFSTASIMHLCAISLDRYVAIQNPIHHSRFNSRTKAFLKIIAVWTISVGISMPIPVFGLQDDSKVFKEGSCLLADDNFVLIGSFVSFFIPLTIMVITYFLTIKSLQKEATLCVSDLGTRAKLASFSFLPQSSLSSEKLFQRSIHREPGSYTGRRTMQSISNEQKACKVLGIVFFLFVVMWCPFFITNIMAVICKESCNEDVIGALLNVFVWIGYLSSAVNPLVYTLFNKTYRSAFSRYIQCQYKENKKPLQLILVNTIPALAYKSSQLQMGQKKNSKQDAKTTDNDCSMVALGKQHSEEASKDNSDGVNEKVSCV
row,IC50,SMILES
1,4.89 µM,"O=C1c2ccccc2CCN1CCN1CCCCC(Oc2ccc(F)cc2)C1 (centres unmarked) [Example 280, 2-(2-(3-(4-fluorophenoxy)azepan-1-yl)ethyl)-3,4-dihydroisoquinolin-1(2H)-one]"
2,10 µM,"COc1ccc(O[C@H]2CCN(CCN3CCc4ccccc4C3=O)C2)cc1 [Example 28, (S)-2-(2-(3-(4-methoxyphenoxy)pyrrolidin-1-yl)ethyl)-3,4-dihydroisoquinolin-1(2H)-one]"
3,1.44 µM,"O=C1CC2(CCN(CC3CCc4ccccc43)CC2)Oc2ccccc21 (centres unmarked) [Example 444, l′-((2,3-dihydro-1H-inden-1-yl)methyl)spiro[chromane-2,4′-piperidin]-4-one]"
4,7.47 µM,"COc1ccccc1O[C@H]1CCN(CCN2CCc3ccccc3C2=O)C1 [Example 14, (S)-2-(2-(3-(2-methoxyphenoxy)pyrrolidin-1-yl)ethyl)-3,4-dihydroisoquinolin-1(2H)-one]"
5,> 16.7 µM,"O=C1c2ccccc2CCN1CCN1CC[C@@H](Oc2cccnc2)C1 [Example 23, (R)-2-(2-(3-(pyridin-3-yloxy)pyrrolidin-1-yl)ethyl)-3,4-dihydroisoquinolin-1(2H)-one]"
6,3.99 µM,"COc1ccc2c(c1)C(CN1CCC[C@H](Oc3ccc(F)cc3)C1)CC2 (stereo partly drawn) [Example 256, (3S)-3-(4-fluorophenoxy)-1-((6-methoxy-2,3-dihydro-1H-inden-1-yl)methyl)piperidine]"
7,> 8.7 µM,"O=C1c2ccccc2CCN1CCN1CCC(Oc2ccncc2)CC1 [Example 199, 2-(2-(4-(pyridin-4-yloxy)piperidin-1-yl)ethyl)-3,4-dihydroisoquinolin-1(2H)-one]"
8,0.45 µM,"COc1ccccc1OC1CCN(CC2CCc3cc(C#N)ccc32)CC1 (centres unmarked) [Example 99, 1-((4-(2-methoxyphenoxy)piperidin-1-yl)methyl)-2,3-dihydro-1H-indene-5-carbonitrile]"
9,0.86 µM,"COc1cccc(OC2CCN(CC3CCOc4ccccc43)CC2)c1 (centres unmarked) [Example 164, 1-(chroman-4-ylmethyl)-4-(3-methoxyphenoxy)piperidine]"
10,10.4 µM,"OC(COc1ccccc1)CN1C[C@@H]2C[C@H]1CN2c1ccccc1 (stereo partly drawn) [Example 307, 1-phenoxy-3-((1S,4S)-5-phenyl-2,5-diazabicyclo[2.2.1]heptan-2-yl)propan-2-ol]"
11,1.6 µM,"COc1cccc(O[C@@H]2CCN(CC(O)CO[C@@H]3CCc4ccccc43)C2)c1 (stereo partly drawn) [Example 40, 1-(((R)-2,3-dihydro-1H-inden-1-yl)oxy)-3-((R)-3-(3-methoxyphenoxy)pyrrolidin-1-yl)propan-2-ol]"
12,> 3.16 µM,"Fc1ccc(OC2COCCN(CC3COc4ccccc43)C2)cc1 (centres unmarked) [Example 278, 4-((2,3-dihydrobenzofuran-3-yl)methyl)-6-(4-fluorophenoxy)-1,4-oxazepane]"
13,> 16.7 µM,"O=C1c2ccccc2CCN1CCN1CCOC(Cc2ccccc2)C1 (centres unmarked) [Example 252, 2-(2-(2-benzylmorpholino)ethyl)-3,4-dihydroisoquinolin-1(2H)-one]"
14,1.1 µM,"OC1(CN2CCC3(CCc4ccccc4O3)CC2)COCc2ccccc21 (centres unmarked) [Example 413, 4-(spiro[chromane-2,4′-piperidin]-1′-ylmethyl)isochroman-4-ol]"
15,> 10 µM,"COc1ccccc1OC1CCN(CC2(C)CCc3ccccc32)CC1 (centres unmarked) [Example 96, 4-(2-methoxyphenoxy)-1-((1-methyl-2,3-dihydro-1H-inden-1-yl)methyl)piperidine]"
16,0.56 µM,"COc1ccccc1O[C@H]1CCN(CCN2CCc3ccccc3C2=O)[C@H]1C [Example 19, 2-(2-((2S,3S)-3-(2-methoxyphenoxy)-2-methylpyrrolidin-1-yl)ethyl)-3,4-dihydroisoquinolin-1(2H)-one]"
17,0.09 µM,"O[C@H](COC1CCCCC1)CN1CC2(CC(Oc3ccccc3)CO2)C1 (stereo partly drawn) [Example 371, (2S)-1-(cyclohexyloxy)-3-(7-phenoxy-5-oxa-2-azaspiro[3.4]octan-2-yl)propan-2-ol]"
18,1.05 µM,"COc1ccccc1CN1CCC2(CCc3ccccc3O2)CC1 [Example 416, l′-(2-methoxybenzyl) spiro[chromane-2,4′-piperidine]]"
19,> 3.16 µM,"O=C1c2ccccc2CCN1CCN1CC[C@@H]2C[C@H]1CN2c1ccccc1 [Example 324, 2-(2-((1S,5R)-6-phenyl-2,6-diazabicyclo[3.2.1]octan-2-yl)ethyl)-3,4-dihydroisoquinolin-1(2H)-one]"
20,1.78 µM,"Fc1cccc2c1C(CN1CCC(Oc3ccncc3)CC1)CC2 (centres unmarked) [Example 118, 4-((1-((7-fluoro-2,3-dihydro-1H-inden-1-yl)methyl)piperidin-4-yl)oxy)pyridine]"

# Continued, molecule first:
row,SMILES,IC50
1,"c1ccc2c(c1)CC1(CCN(CC3Cc4cccnc4C3)CC1)O2 (centres unmarked) [Example 397, 1′-((6,7-dihydro-5H-cyclopenta[b]pyridin-6-yl)methyl)-3H-spiro[benzofuran-2,4′-piperidine]]",2.76 µM
2,"O=C1c2ccccc2CCN1CCN1CC[C@@H](Oc2ccccn2)C1 [Example 15, (R)-2-(2-(3-(pyridin-2-yloxy)pyrrolidin-1-yl)ethyl)-3,4-dihydroisoquinolin-1(2H)-one]",> 16.7 µM
3,"O[C@@H](COC1CCCCC1)CN1[C@@H]2CC[C@H]1CN(c1nccs1)C2 [Example 291, (R)-1-(cyclohexyloxy)-3-((1R,5S)-3-(thiazol-2-yl)-3,8-diazabicyclo[3.2.1]octan-8-yl)propan-2-ol]",> 10 µM
4,"COc1ccc2c(c1)C(CN1C[C@H]3CC[C@@H](C1)N3c1ccccc1)CC2 (stereo partly drawn) [Example 296, (1R,5S)-3-((6-methoxy-2,3-dihydro-1H-inden-1-yl)methyl)-8-phenyl-3,8-diazabicyclo[3.2.1]octane]",> 10 µM
5,"COc1cccc(O[C@@H]2CCN(CC(O)CO[C@H]3CCc4ccccc43)C2)c1 (stereo partly drawn) [Example 38, 1-(((S)-2,3-dihydro-1H-inden-1-yl)oxy)-3-((R)-3-(3-methoxyphenoxy)pyrrolidin-1-yl)propan-2-ol]",3.17 µM
6,"COc1ccccc1OC1CCN(CC2COc3ccccc32)CC1 (centres unmarked) [Example 130, 1-((2,3-dihydrobenzofuran-3-yl)methyl)-4-(2-methoxyphenoxy)piperidine]",> 10 µM
7,"C[C@H]1C[C@@]2(CCc3ccccc3O2)CCN1CCN1CCc2ccccc2C1=O [Example 424, 2-(2-((2R,2′S)-2′-methylspiro[chromane-2,4′-piperidin]-1′-yl)ethyl)-3,4-dihydroisoquinolin-1(2H)-one]",0.05 µM
8,"OC(CO[C@H]1CCCc2ccccc21)CN1CC[C@@H](Oc2ccc(F)cc2)C1 (stereo partly drawn) [Example 48, 1-((R)-3-(4-fluorophenoxy)pyrrolidin-1-yl)-3-(((S)-1,2,3,4-tetrahydronaphthalen-1-yl)oxy)propan-2-ol]",2.22 µM
9,"OC(COc1ccccc1)CN1C[C@@H]2C[C@H](C1)N(c1ccccc1)C2 (stereo partly drawn) [Example 334, 1-phenoxy-3-((1S,5R)-6-phenyl-3,6-diazabicyclo[3.2.1]octan-3-yl)propan-2-ol]",> 16.7 µM
10,"Fc1ccc(OC2CCCN(CC3Cc4cccnc4C3)CC2)cc1 (centres unmarked) [Example 273, 6-((4-(4-fluorophenoxy)azepan-1-yl)methyl)-6,7-dihydro-5H-cyclopenta[b]pyridine]",0.02 µM
11,"c1ccc(N2C[C@@H]3C[C@H]2CCN3CCC2CCc3cccnc32)cc1 (stereo partly drawn) [Example 323, 7-(2-((1S,5R)-6-phenyl-2,6-diazabicyclo[3.2.1]octan-2-yl)ethyl)-6,7-dihydro-5H-cyclopenta[b]pyridine]",> 3.16 µM
12,"OC(CO[C@@H]1CCc2ccccc21)CN1CC[C@H](Oc2cccc(F)c2)C1 (stereo partly drawn) [Example 37, 1-(((R)-2,3-dihydro-1H-inden-1-yl)oxy)-3-((S)-3-(3-fluorophenoxy)pyrrolidin-1-yl)propan-2-ol]",9.01 µM
13,"OC(COC1CCCCC1)CN1CCC2(CCCN(c3ccccc3)C2)C1 (centres unmarked) [Example 351, 1-(cyclohexyloxy)-3-(7-phenyl-2,7-diazaspiro[4.5]decan-2-yl)propan-2-ol]",> 16.7 µM
14,"Fc1ccc(O[C@@H]2CCN(CC3CCc4cccnc43)C2)cc1 (stereo partly drawn) [Example 7, 7-(((R)-3-(4-fluorophenoxy)pyrrolidin-1-yl)methyl)-6,7-dihydro-5H-cyclopenta[b]pyridine]",1.01 µM
15,"COc1cccc(COC2CCN(CC3CCc4ccc(OC)cc43)CC2)c1 (centres unmarked) [Example 245, 1-((6-methoxy-2,3-dihydro-1H-inden-1-yl)methyl)-4-((3-methoxybenzyl)oxy)piperidine]",0.41 µM
